SMILES strings stand for the structures.

The target in one test is T1, GST-Xa-hAAK1 (Homo sapiens, UniProt Q2M2I8).
T1 construct: made in house
The test can be described thus: AAK1 kinase assay. Particulars: ATP 22 μM, 3 hours at room temperature. It counts as biochemical. As to the method: The assays were performed in U-bottom 384-well plates. […] The reactions were initiated by the combination of bacterially expressed, GST-Xa-hAAK1 with substrates and test compounds. The reactions were incubated at room temperature for 3 hours and terminated by adding 60 μl of 35 mM EDTA buffer to each sample. The reactions were analyzed on the Caliper LabChip 3000 (Caliper, Hopkinton, Mass.) by electrophoretic separation of the fluorescent substrate and phosphorylated product. […] Compounds were dissolved at 10 mM in dimethylsulfoxide (DMSO) and evaluated at eleven concentrations. IC50 values were derived by non-linear regression analysis.

In test [1] the target is T2, AAK1 (full length human) with AP2M1 in HEK293F cells (Homo sapiens, UniProt Q2M2I8).
T2 construct: expressed in transfected cells; host or cells: HEK293F
T2 sequence (Q2M2I8 whole entry): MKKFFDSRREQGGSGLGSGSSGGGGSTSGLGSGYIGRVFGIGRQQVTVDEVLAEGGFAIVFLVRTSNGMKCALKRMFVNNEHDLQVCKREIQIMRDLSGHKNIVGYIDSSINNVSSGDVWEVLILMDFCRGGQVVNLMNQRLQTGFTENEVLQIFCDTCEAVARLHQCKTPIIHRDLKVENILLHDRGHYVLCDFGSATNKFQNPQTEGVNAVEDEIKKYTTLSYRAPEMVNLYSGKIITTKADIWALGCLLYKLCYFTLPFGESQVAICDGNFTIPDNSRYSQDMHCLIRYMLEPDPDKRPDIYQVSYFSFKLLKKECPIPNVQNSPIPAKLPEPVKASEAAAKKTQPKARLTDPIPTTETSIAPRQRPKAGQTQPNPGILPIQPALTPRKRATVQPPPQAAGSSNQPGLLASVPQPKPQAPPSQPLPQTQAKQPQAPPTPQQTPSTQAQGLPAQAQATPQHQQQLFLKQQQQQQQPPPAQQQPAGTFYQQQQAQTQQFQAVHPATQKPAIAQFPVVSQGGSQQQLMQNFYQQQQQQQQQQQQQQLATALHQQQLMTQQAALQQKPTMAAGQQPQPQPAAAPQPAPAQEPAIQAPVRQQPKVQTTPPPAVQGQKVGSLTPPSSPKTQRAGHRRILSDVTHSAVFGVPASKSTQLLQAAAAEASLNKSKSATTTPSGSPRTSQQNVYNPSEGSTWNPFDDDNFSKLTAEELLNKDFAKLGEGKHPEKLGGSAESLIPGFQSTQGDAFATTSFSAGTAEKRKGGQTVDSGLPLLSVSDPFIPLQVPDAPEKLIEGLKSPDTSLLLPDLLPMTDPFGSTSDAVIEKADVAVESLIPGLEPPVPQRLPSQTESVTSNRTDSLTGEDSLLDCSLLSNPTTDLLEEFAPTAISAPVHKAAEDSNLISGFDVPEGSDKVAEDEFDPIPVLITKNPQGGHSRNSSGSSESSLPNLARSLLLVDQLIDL
The test can be described thus: HEK281 cell-based assay (phospho-mu2 Western blot in transfected HEK293F cells). Particulars: 3 hours, inhibition of mu2 phosphorylation. As to the method:
HEK293F cells were cultured in media containing DMEM (Gibco, cat. #11965), 10% FBS (SAFC Biosciences, cat. #12103C), 1×GPS (glutamine, penicillin and streptomycin). On day one, cells were plated on a 10 cm dish so that they are ˜80% confluent at time of transfection. Roughly 12 million cells were in a 10 cm dish at time of transfection. On day two, each dish was transfected with 48 ug DNA and 144 ul Lipofectamine 2000 (Invitrogen, cat. #11668-019). The DNA was comprised of a mixture (per 10 cm dish) containing 3 ug AAK1/HA/pIRES (full length human, NCBI accession no. NP_055726.2), 45 μg Flag/AP2MI/pcDNA (full length human), and 1.5 ml OPTI-MEM. The Lipofectamine 2000 is made up of a mixture (per 10 cm dish) containing 144 μl Lipofectamine 2000 and 1.5 ml OPTI-MEM. Each mixture was transferred to individual 15 ml tubes and incubated at RT for 5 minutes, and then the two mixes were combined and incubated at RT for 20 minutes. Growth media was then aspirated from each 10 cm plate and replaced with 10 ml of DMEM+10% FBS (no GPS). Finally, 3 ml DNA/Lipofectamine mix was added to each 10 cm dish and mix gently followed by incubate of plate overnight at 37° C. and 5% CO2.
On day three, compounds were diluted in 100% DMSO at 1000× final concentration, followed by 3-fold serial dilutions for a total of 5 concentrations tested. Four compounds were tested per 10 cm dish. One ul of each compound dilution was then pipetted into a deep-well, 96-well plate, followed by addition of 500 μl DMEM+0.5% FBS into each well for a 2× final concentration of each compound. Cells were resuspended in a 10 cm dish by simple pipetting (HEK293 cells come off the plate that easy at this point) and then transferred to a 50 ml conical tube and pelleted by centrifugation at 1000 rpm for 5 min. Cell pellets were then resuspended in 2.75 ml DMEM+0.5% FBS per 10 cm dish and 100 μl of cell suspension transferred into each well of 96-well TC plate. Finally, 100 μl of 2× compound diluted in DMEM+0.5% FBS was then added into wells containing cell suspension for a 1× final concentration. Plates were then incubated at 37° C. and 5% CO2 for 3 hours followed by transferring of cell suspensions from each well into 12-tube PCR strips. The PCR strips were spun in a tip rack at 1000 rpm for 5 minutes to pellet cells and media was then removed by pipetting without disturbing the cell pellet.
To prepare for Western Blot analysis, cell pellets were resuspend in 40 ul 1×LDS-PAGE sample buffer (Invitrogen, cat. # NP0008)+2× Halt phosphatase and protease inhibitor cocktail (Thermo Scientific, cat. #1861284), followed by sonicating each with microtip sonicator set at 5 for 8-10 seconds. Five ul of 10× NuPage Sample Reducing Agent (with […]) was to each sample followed by heat denaturing at 70 C for 10 min on PCR machine. A total of 10 μl per sample was loaded into each lane of a 4-20% Tris-Glycine Criterion 26-well gel (Biorad, cat. #345-0034) for the phospho-mu2 blot and 10 μl per lane in a 4-12% Bis-Tris (+MES buffer) NuPAGE 26-well gel (Invitrogen, cat. # WG1403BX10) for the mu2 blot. For controls, 2 ng of phospho-mu2 or 20 ng mu2/Flag proteins were loaded in the last well of each gel. After SDS-PAGE, samples on each gel were transferred to PVDF membrane using an iBlot and membranes were blocked for one hour in TBST+5% milk, followed by wash 3× for 5-10 min with TBST. Criterion gels were probed with rabbit anti-phospho-mu2 (1:5000; a rabbit polyclonal antibody produced by New England Peptide and affinity purified at Lexicon) in TBST+5% BSA, whereas, NuPAGE gels were probed with mouse anti-Flag (1:500; Sigma, cat. # F1804) in TBST+5% milk, and these primary antibodies were incubated overnight at 4° C. on a rocker. […]

T1 sequence (Q2M2I8 whole entry): as above

One may read the IC50 as the midpoint of a concentration-inhibition curve. Consider `CC(C)C[C@H](N)COc1cc2c(cc1F)c1ccnc(N)c1c(=O)n2C` [Example 52, (S)-4-amino-8-(2-amino-4-methylpentyloxy)-9-fluoro-6-methylbenzo[c][2,7]naphthyridin-5(6H)-one], for which the results for the IC50 (on GST-Xa-hAAK1 (given as IC50 range); in test [1]) were 1 to 10 nM and 2.4 nM, respectively.
`CCc1cc2c3ccncc3c(=O)n(C)c2cc1OC[C@@H](N)CC(C)C` [Example 46, (S)-8-(2-amino-4-methylpentyloxy)-9-ethyl-6-methylbenzo[c][2,7]naphthyridin-5(6H)-one]: the IC50 on GST-Xa-hAAK1 (given as IC50 range) is 1 to 10 nM; in test [1] it was 3.1 nM.
For the molecule `CC(C)C[C@H](N)COc1cc2c(cc1C(C)C)c1ccncc1c(=O)n2C` [Example 47, (S)-8-(2-amino-4-methylpentyloxy)-9-isopropyl-6-methylbenzo[c][2,7]naphthyridin-5(6H)-one], the IC50 on GST-Xa-hAAK1 was 4.5 nM; in test [1] (given as IC50 range), 10 to 100 nM.
Turning to `Cc1nccc2c1c(=O)n(C)c1cc(OC[C@@H](N)CC(C)C)c(-c3cncs3)cc21` [Example 83, (S)-8-(2-amino-4-methylpentyloxy)-4,6-dimethyl-9-(thiazol-5-yl)benzo[c][2,7]naphthyridin-5(6H)-one], the IC50 (at GST-Xa-hAAK1 (given as IC50 range); in test [1] (given as IC50 range)) was 1 to 10 nM in each case.
In the case of `Cc1nccc2c1c(=O)n(C)c1cc(OC[C@@H](N)CC(C)C(F)(F)F)ccc21` (single isomer, unassigned) [Example 88], the IC50 at GST-Xa-hAAK1 (given as IC50 range) was in the range of 1 to 10 nM; in test [1] (given as IC50 range), 10 to 100 nM.
In the same order, the values of `Cc1nccc2c1c(=O)[nH]c1c(F)c(OC[C@@H](N)CC(C)C)c(Cl)cc12` [Example 103, (S)-8-(2-amino-4-methylpentyloxy)-9-chloro-7-fluoro-4-methylbenzo[c][2,7]naphthyridin-5(6H)-one] are 1 to 10 nM and 10 to 100 nM.
As for `Cc1nccc2c1c(=O)n(C)c1cc(OCC(C)(N)CC(C)C)c(Cl)cc21` (stereo not drawn) [Example 41, 8-((2-amino-2,4-dimethylpentyl)oxy)-9-chloro-4,6-dimethylbenzo[c][2,7]naphthyridin-5(6H)-one], the IC50 at GST-Xa-hAAK1 was 0.64 nM; in test [1] it was 3.3 nM.
With `CC(C)C[C@H](N)COc1ccc2c3ccnc(N)c3c(=O)n(C)c2c1` [Example 17, (S)-4-amino-8-(2-amino-4-methylpentyloxy)-6-methylbenzo[c][2,7]naphthyridin-5(6H)-one], the IC50 on GST-Xa-hAAK1 was 3 nM; in test [1] (given as IC50 range), 1 to 10 nM.
Turning to `Cc1nccc2c1c(=O)n(C)c1cc(OC[C@@H](N)CC3CCC3)c(Cl)cc21` [Example 24, (S)-8-(2-amino-3-cyclobutylpropoxy)-9-chloro-4,6-dimethylbenzo[c][2,7]naphthyridin-5(6H)-one], the IC50 (at GST-Xa-hAAK1 (given as IC50 range); in test [1] (given as IC50 range)) was 1 to 10 nM throughout.
With `CC(C)CC(C)(N)COc1ccc2c3ccncc3c(=O)n(C)c2c1` (single isomer, unassigned) [Example 58, 8-((2-amino-2,4-dimethylpentyl)oxy)-6-methylbenzo[c][2,7]naphthyridin-5(6H)-one], the IC50 at GST-Xa-hAAK1 is 11 nM; in test [1] (given as IC50 range) it was 10 to 100 nM.
On to `Cc1nccc2c1c(=O)n(C)c1cc(OC[C@@H](N)CC(C)C)c(C#N)cc21` [Example 64, (S)-8-(2-amino-4-methylpentyloxy)-4,6-dimethyl-5-oxo-5,6-dihydrobenzo[c][2,7]naphthyridine-9-carbonitrile], for which the IC50 on GST-Xa-hAAK1 (given as IC50 range) is < 1 nM; in test [1] it was 0.6 nM.
Regarding `CC(C)CC(C)(N)COc1ccc2c3ccncc3c(=O)n(C)c2c1` (single isomer, unassigned) [Example 59, 8-((2-amino-2,4-dimethylpentyl)oxy)-6-methylbenzo[c][2,7]naphthyridin-5(6H)-one], the IC50 lay in the range of 1 to 10 nM on GST-Xa-hAAK1 (given as IC50 range) and 10 to 100 nM in test [1] (given as IC50 range).
On to `Cc1nccc2c1c(=O)n(C)c1cc(OC[C@H](N)CC(C)C)c(C#N)cc21` [Example 78, (R)-8-(2-amino-4-methylpentyloxy)-4,6-dimethyl-5-oxo-5,6-dihydrobenzo[c][2,7]naphthyridine-9-carbonitrile], for which the IC50 is 0.8 nM at GST-Xa-hAAK1 and 1 to 10 nM in test [1] (given as IC50 range).
In the case of `Cc1nccc2c1c(=O)n(C)c1cc(OC[C@@H](N)CC(C)C)c(-c3cnco3)cc21` [Example 72, (S)-8-(2-amino-4-methylpentyloxy)-4,6-dimethyl-9-(oxazol-5-yl)benzo[c][2,7]naphthyridin-5(6H)-one], the IC50 (at GST-Xa-hAAK1 (given as IC50 range); in test [1] (given as IC50 range)) was < 1 nM in each case.
For `CC(C)C[C@H](N)COc1cc2c(cc1Br)c1ccncc1c(=O)n2C` [Example 3, (S)-8-((2-amino-4-methylpentyl)oxy)-9-bromo-6-methylbenzo[c][2,7]naphthyridin-5(6H)-one], the IC50 on GST-Xa-hAAK1 amounted to 2.7 nM; in test [1], 1.6 nM.
Take `Cc1nccc2c1c(=O)n(C)c1cc(OC[C@H](N)CC(C)C)c(Cl)cc21` [Example 20, (R)-8-((2-amino-4-methylpentyl)oxy)-9-chloro-4,6-dimethylbenzo[c][2,7]naphthyridin-5(6H)-one]: the IC50 (on GST-Xa-hAAK1 (given as IC50 range); in test [1] (given as IC50 range)) was 1 to 10 nM in each case.
`Cc1nccc2c1c(=O)n(C)c1cc(OC[C@@H](N)CC(C)C)c(F)cc21` [Example 70, (S)-8-(2-amino-4-methylpentyloxy)-9-fluoro-4,6-dimethylbenzo[c][2,7]naphthyridin-5(6H)-one]: the IC50 (on GST-Xa-hAAK1 (given as IC50 range); in test [1] (given as IC50 range)) was 1 to 10 nM each time.
Regarding `Cc1nccc2c1c(=O)n(C)c1cc(OC[C@@H](N)CC3CC3)c(Cl)cc21` [Example 23, (S)-8-(2-amino-3-cyclopropylpropoxy)-9-chloro-4,6-dimethylbenzo[c][2,7]naphthyridin-5(6H)-one], the IC50 at GST-Xa-hAAK1 was 0.12 nM; in test [1] (given as IC50 range) it was 1 to 10 nM.
In the case of `Cc1nccc2c1c(=O)n(C)c1cc(OC[C@@H](N)CC(C)C)c(C(F)(F)F)cc21` [Example 75, (S)-8-(2-amino-4-methylpentyloxy)-4,6-dimethyl-9-(trifluoromethyl)benzo[c][2,7]naphthyridin-5(6H)-one], the IC50 (on GST-Xa-hAAK1 (given as IC50 range); in test [1] (given as IC50 range)) was 1 to 10 nM each time.
For the molecule `Cc1nccc2c1c(=O)n(C)c1cc(OC[C@@H](N)CC(C)C)ccc21` [Example 16, (S)-8-((2-amino-4-methylpentyl)oxy)-4,6-dimethylbenzo[c][2,7]naphthyridin-5(6H)-one], the IC50 (on GST-Xa-hAAK1 (given as IC50 range); in test [1] (given as IC50 range)) was 10 to 100 nM in each case.
For the molecule `CC(C)C[C@H](N)COc1ccc2c3ccncc3c(=O)n(C)c2c1` [Example 2, (S)-8-((2-amino-4-methylpentyl)oxy)-6-methylbenzo[c][2,7]naphthyridin-5(6H)-one], the IC50 was 1 to 10 nM on GST-Xa-hAAK1 (given as IC50 range) and 7 nM in test [1].

(Values after patent US8901305B2, “Aryl lactam kinase inhibitors” (Bristol-Myers Squibb Company, priority 2012, dated 2014).)
